From patent US20220143231A1, “MACROCYCLIC COMPOUNDS AND METHODS OF USE THEREOF” (Janssen Biotech, Inc., priority 2020, published 2022)

Experiment: Chelation test with La^3+ by HPLC
Format: physicochemical
Conditions: FIGS. 1A-1B

chelation of La^3+ (shift in HPLC retention time after mixing)	Compound
rapid chelation	CC(C)CCC(c1cccc(C(=O)O)n1)N1CCOCCOCCN(Cc2cccc(C(=O)O)n2)CCOCCOCC1 (centres unmarked) [TOPA-[C7]-isopentyl, 6-((16-(1-(6-carboxypyridin-2-yl)-4-methylpentyl)-1,4,10,13-tetraoxa-7,16-diazacyclooctadecan-7-yl)methyl)picolinic acid]
rapid chelation	O=C(O)c1cccc(CN2CCOCCOCCN(C(c3ccccc3)c3cccc(C(=O)O)n3)CCOCCOCC2)n1 (centres unmarked) [TOPA-[C7]-phenyl, 6-((16-((6-carboxypyridin-2-yl)(phenyl)methyl)-1,4,10,13-tetraoxa-7,16-diazacyclooctadecan-7-yl)methyl)picolinic acid]
